# pIC50: −log10 of the molar value. Several values for one entry are separate records, joined by “and”; a condition that tells them apart may be missing. Equal entries are not always repeated. Where two headings read alike, the source gives them in different places.
# Tests used:
# [1] = target: T1, recombinant kinase domain of the ALK (Homo sapiens, UniProt Q9UM73); assay: Inhibition of ALK tyrosine kinase activity; type: biochemical; conditions: each compound tested twice, once each with two different preparations of ALK
# T1 construct: using the recombinant kinase domain of the ALK
# Method: The inhibition of ALK tyrosine kinase activity is measured using known methods, for example using the recombinant kinase domain of the ALK in analogy to the VEGF-R kinase assay described in J. Wood et al. Cancer Res. 60, 2178-2189 (2000). The table below reports the IC50 values for several compounds of the present invention. Each compound is tested twice, once each with two different preparations of ALK.
# [2] = system: human NPM-ALK overexpressing murine BaF3 cells (BaF3-NPM-ALK); assay: Growth inhibition of BaF3-NPM-ALK cells (Yopro staining); type: cell-based; conditions: Mus musculus, 48 h, two days incubation
# Source text: The expression of NPM-ALK is achieved by transfecting the BaF3 cell line with an expression vector pCIneo™ (Promega Corp., Madison Wis., USA ) coding for NPM-ALK and subsequent selection of G418 resistant cells. Non-transfected BaF3 cells depend on IL-3 for cell survival. In contrast NPM-ALK expressing BaF3 cells (named BaF3-NPM-ALK) can proliferate in the absence of IL-3 because they obtain proliferative signal through NPM-ALK kinase. Putative inhibitors of the NPM-ALK kinase therefore abolish the growth signal and result in antiproliferaflve activity. The antiproliferative activity of putative inhibitors of the NPM-ALK kinase can however be overcome by addition of IL-3 which provides growth signals through an NPM-ALK independent mechanism. [for an analogous cell system using FLT3 kinase see E Weisberg et al. Cancer Cell; 1, 433-443 (2002). The inhibitory activity of the compounds of formula I is determined, briefly, as follows: BaF3-NPM-ALK cells (15 000/microtitre plate well) are transferred to 96-well microtitre plates. The test compounds [dissolved in dimethyl sulfoxide (DMSO)] are added in a series of concentrations (dilution series) in such a manner that the final concentration of DMSO is not greater than 1% (v/v). After the addition, the plates are incubated for two days during which the control cultures without test compound are able to undergo two cell-division cycles. The growth of the BaF3-NPM-ALK cells is measured by means of Yopro™ staining (T ldziorek et al. J. Immunol. Methods; 185:249-58 [1995]): 25 μl of lysis buffer consisting of 20 mM sodium citrate, pH 4.0, 26.8 mM sodium chloride, 0.4% NP40, 20 mM EDTA and […] to each well. Cell lysis was completed within 60 min at room temperature and total amount of Yopro bound to DNA was determined by measurement using the Cytofluor II 96-well reader (PerSeptive Biosystems) with the following settings: Excitation (nm) 485/20 and Emission (nm) 530/25.
# IC50 values are determined by a computer-aided system using the formula: ICr50=[(ABStest−ABSstart)/(ABScontrol−ABSstart)]×100.
# [3] = system: human KARPAS-299 lympoma cell line; assay: Antiproliferative action in KARPAS-299 lymphoma cell line; type: cell-based; conditions: KARPAS-299 cell line, same methodology as BaF3-NPM-ALK
# [4] = with IL3, read-out: BaF3 NPM-ALK with IL3 IC50
# [5] = without IL3, read-out: BaF3 NPM-ALK without IL3 IC50
# T1 sequence (Q9UM73 1116-1392 limits assumed): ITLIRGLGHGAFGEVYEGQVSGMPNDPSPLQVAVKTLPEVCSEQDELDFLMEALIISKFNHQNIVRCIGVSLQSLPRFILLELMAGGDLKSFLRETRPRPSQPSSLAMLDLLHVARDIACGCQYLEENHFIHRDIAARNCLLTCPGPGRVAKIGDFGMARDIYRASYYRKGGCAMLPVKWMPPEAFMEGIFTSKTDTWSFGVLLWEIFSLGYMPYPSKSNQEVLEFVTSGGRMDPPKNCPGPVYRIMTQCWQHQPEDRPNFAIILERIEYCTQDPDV
smiles,measurement,setting,value
COc1cc(Nc2nccc(Nc3ccccc3S(=O)(=O)N(C)C)n2)cc(OC)c1OC [Ex. 56],pIC50,[1],6.74 and 7.07
same,pIC50,[2]; [4],5.57
same,pIC50,[2]; [5],6.39
same,pIC50,[3],6.82
"COc1cc(Nc2nccc(Nc3cccc(C)c3S(N)(=O)=O)n2)cc(OC)c1OC [Example 3, 2-methyl-6-[2-(3,4,5-Trimethoxy-phenylamino)-pyrimidin-4-ylamino]-benzenesulfonamide]",melting point,,72 to 75 °C
CCCNS(=O)(=O)c1ccccc1Nc1ccnc(Nc2cc(OC)c(OC)c(OC)c2)n1 [Ex. 58],pIC50,[1],7.34 and 7.05
same,pIC50,[2]; [4],5.59
same,pIC50,[2]; [5],6.25
same,pIC50,[3],6.48
CN(C)S(=O)(=O)c1ccccc1Nc1ccnc(Nc2cccc(OCCn3ccnc3)c2)n1 [Ex. 48],pIC50,[1],7.32 and 7.08
same,pIC50,[2]; [4],5.85
same,pIC50,[2]; [5],6.26
same,pIC50,[3],6.57

# Reference: US20070105839A1, “2, 4-Di (phenylamino) pyrimidines useful in the treatment of proliferative disorders” (priority 2003, published 2007)
